Measured values: the supplement of paper PMC11451515

Legend:
Details in all cases: 48 h
P12-Ichikawa [1] = experiment: AUC of viability dose-response curve (% viability x log10 dose units); higher = less sensitive
Method in brief: (§1)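 Leukemia cells adapted to each medium were seeded at 500 or 1000 cells/well in 1536-well plates and dosed with library compounds in DMSO at 11 threefold doses from 47 μM to 0.79 nM for 48 h at 37°C. CellTiter-Glo One luminescence was normalised per plate to DMSO and cell-free wells, then fitted with a four-parameter log-logistic model over log10 doses. Area under the curve was taken from this fit by the trapezoidal rule, with curves above full viability scaled and curves failing quality control removed.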

NOMO1 [2] = experiment: as above
Method in brief: as §1

SEM cells [3] = experiment: as above
Method in brief: as §1

SEM cells [4] = experiment: cell viability relative to DMSO control; higher = less cytotoxic
Method in brief: (§2)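 Before seeding, each leukemia line was adapted for at least four passages in each medium. NOMO1 or SEM cells (500 cells/well) and P12-Ichikawa cells (1000 cells/well) went into 1536-well plates at 5 μl, then received library compounds in DMSO by pin dosing across 11 threefold concentrations, 47 μM to 0.79 nM. Readout was CellTiter-Glo One luminescence after 48 h at 37°C, and viability is given as a per-plate percentage of DMSO wells, with cell-free wells as background.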

P12-Ichikawa [5] = experiment: as above
Method in brief: as §2

NOMO1 [6] = experiment: as above
Method in brief: as §2

C=CCO/N=C(/C[C@H]1O[C@@H]2O[C@]3(C)CC[C@H]4[C@H](C)CC[C@@H]([C@H]1C)[C@@]24OO3)[C@H]1O[C@@H]2O[C@]3(C)CC[C@H]4[C@H](C)CC[C@@H]([C@H]1C)[C@@]24OO3
AUC of viability dose-response curve
Details	NOMO1 [2]	P12-Ichikawa [1]	SEM cells [3]
HPLM + 10% dialyzed FBS	347	397	350
RPMI 5 mM glucose + 10% FBS	340	357	329
RPMI 5 mM glucose + 10% dialyzed FBS	338	359	328

CCNC(=O)Nc1ccc2ncc(Nc3ccc(C)cc3)nc2n1
cell viability [%], SEM cells [4]
Details	HPLM + 10% dialyzed FBS	RPMI 5 mM glucose + 10% FBS
0.000781 µM	129	119
0.00234 µM	120	139
0.00702 µM	115	117
0.0211 µM	113	119
0.0632 µM	118	124
0.19 µM	109	98.3
0.569 µM	113	124
1.71 µM	108	114
5.12 µM	110	93.3
15.4 µM	68.1	59.3
46.1 µM	34.8	21.2

AUC of viability dose-response curve
Details	NOMO1 [2]	P12-Ichikawa [1]	SEM cells [3]
HPLM + 10% dialyzed FBS	430	459	437
RPMI 5 mM glucose + 10% FBS	453	465	418
RPMI 5 mM glucose + 10% dialyzed FBS	452	464	402

O=C(Nc1cccnn1)N1CCC(=Cc2cccc(Oc3ccc(C(F)(F)F)cn3)c2)CC1
cell viability [%]
Details	NOMO1 [6]	P12-Ichikawa [5]	SEM cells [4]
HPLM + 10% dialyzed FBS, 0.000781 µM	72.8	92.9	81.8
HPLM + 10% dialyzed FBS, 0.00234 µM	98.3	94.1	86.8
HPLM + 10% dialyzed FBS, 0.00702 µM	109	91.4	84.4
HPLM + 10% dialyzed FBS, 0.0211 µM	47.4	11.9	21.1
HPLM + 10% dialyzed FBS, 0.0632 µM	122	106	94.9
HPLM + 10% dialyzed FBS, 0.19 µM	117	103	98
HPLM + 10% dialyzed FBS, 0.569 µM	113	101	92.5
HPLM + 10% dialyzed FBS, 1.71 µM	124	101	85
HPLM + 10% dialyzed FBS, 5.12 µM	110	102	90
HPLM + 10% dialyzed FBS, 15.4 µM	102	94.4	81.3
HPLM + 10% dialyzed FBS, 46.1 µM	110	87.4	75.6
RPMI 5 mM glucose + 10% FBS, 0.000781 µM	83.4	85	104
RPMI 5 mM glucose + 10% FBS, 0.00234 µM	98.3	86.8	115
RPMI 5 mM glucose + 10% FBS, 0.00702 µM	96.3	96	112
RPMI 5 mM glucose + 10% FBS, 0.0211 µM	21.7	12.6	17.1
RPMI 5 mM glucose + 10% FBS, 0.0632 µM	90.8	101	119
RPMI 5 mM glucose + 10% FBS, 0.19 µM	112	103	127
RPMI 5 mM glucose + 10% FBS, 0.569 µM	91.6	99.7	121
RPMI 5 mM glucose + 10% FBS, 1.71 µM	97.7	103	139
RPMI 5 mM glucose + 10% FBS, 5.12 µM	98.1	95.7	118
RPMI 5 mM glucose + 10% FBS, 15.4 µM	96.2	80.3	103
RPMI 5 mM glucose + 10% FBS, 46.1 µM	94.2	76.8	87.8
RPMI 5 mM glucose + 10% dialyzed FBS, 0.000781 µM	91	92	92.8
RPMI 5 mM glucose + 10% dialyzed FBS, 0.00234 µM	85.3	93.9	92.6
RPMI 5 mM glucose + 10% dialyzed FBS, 0.00702 µM	94.4	101	89.8
RPMI 5 mM glucose + 10% dialyzed FBS, 0.0211 µM	75.4	47.1	17
RPMI 5 mM glucose + 10% dialyzed FBS, 0.0632 µM	103	110	113
RPMI 5 mM glucose + 10% dialyzed FBS, 0.19 µM	97.4	100	112
RPMI 5 mM glucose + 10% dialyzed FBS, 0.569 µM	109	102	106
RPMI 5 mM glucose + 10% dialyzed FBS, 1.71 µM	106	105	98.4
RPMI 5 mM glucose + 10% dialyzed FBS, 5.12 µM	96.5	101	93.7
RPMI 5 mM glucose + 10% dialyzed FBS, 15.4 µM	103	90.3	78.3
RPMI 5 mM glucose + 10% dialyzed FBS, 46.1 µM	100	81.5	55.8

O=C(OCC#CCSc1nnc(-c2cccc3ccccc23)o1)c1cc2ccccc2s1
SEM cells [4], HPLM + 10% dialyzed FBS
Details	cell viability [%]
0.000781 µM	119
0.00234 µM	122
0.00702 µM	121
0.0211 µM	124
0.0632 µM	42.3
0.19 µM	132
0.569 µM	130
1.71 µM	115
5.12 µM	71.7
15.4 µM	128
46.1 µM	113

AUC of viability dose-response curve
Details	HPLM + 10% dialyzed FBS	RPMI 5 mM glucose + 10% FBS	RPMI 5 mM glucose + 10% dialyzed FBS
NOMO1 [2]	431	443	455
P12-Ichikawa [1]	451	444	468

CC[S+](=O)([O-])N1CC(CC#N)(n2cc(-c3ncnc4[nH]ccc34)cn2)C1
AUC of viability dose-response curve
Details	NOMO1 [2]	P12-Ichikawa [1]	SEM cells [3]
HPLM + 10% dialyzed FBS	441	452	449
RPMI 5 mM glucose + 10% FBS	451	454	457
RPMI 5 mM glucose + 10% dialyzed FBS	471	443	450

C=C1C(=O)OC2/C=C(/C)CC/C=C(/C)CCC12 (centres undefined)
AUC of viability dose-response curve
Details	NOMO1 [2]	P12-Ichikawa [1]	SEM cells [3]
HPLM + 10% dialyzed FBS	444	454	455
RPMI 5 mM glucose + 10% FBS	463	442	449
RPMI 5 mM glucose + 10% dialyzed FBS	457	448	446
